One assay deals with VE-cadherin. Briefly: Western blot analysis of VE-cadherin, CCM3 knock out cells. The class given is cell-based, mouse. The conditions noted are these: 72 hours. Here is the method: (§1) Cells were seeded 6.3×10^4 cells/cm^2. The day after, PTC209 and UNC1999 were added to the confluent cells. Drugs were left for one or three days depending on the aim of the experiment. Final concentrations used for the two drugs were: 1 uM PTC209 and 5 uM UNC1999.
Confluent cells were lysed with boiling modified Laemi sample Buffer (2% SDS, 20% glycerol, and 125 mM Tris-HCl, pH 6.8). Lysates were incubated for 10 minutes at 100° C. to allow proteins denaturation. Protein concentration was estimated using the BCA Protein Assay Kit (Pierce). Equal amount of proteins was loaded on a gel, separated by SDS-PAGE and transferred to a Protran Nitrocellulose Membrane (Whatman) 0.2 um pores. The membranes were blocked for 1 hour at RT in Tris Buffered Saline (TBS: NaCl 150 mM, Tris-HCl 10 mM pH 7.4) plus 0.1% Tween-20 containing 5% BSA or milk. […] Membranes were rinsed three times with TBST for 5 minutes each and specific bindings were detected by enhanced chemiluminescence (ECL) system (Amersham Bioscience) using ChemiDoc XRS gel imaging system (Bio-Rad).
Experiment with combined PTC209 and UNC1999 treatments was repeated with the same experimental conditions described before and junction organisation was analysed through VE-cadherin staining and protein expression analysis (FIG. 19).

In a further assay the test system is PRC2. The conditions noted are these: Konze et al., 2013; cited from earlier work.
In assay [1] the test system is EndMT markers (Klf4, Sca1 and Fsp1). Briefly: Western blot analysis of EndMT markers, wild type and CCM3 knock out immortalized lung endothelial cells. Format: cell-based, mouse. The conditions noted are these: 72 hours. Here is the method: as §1
Confluent cells were lysed with boiling modified Laemi sample Buffer (2% SDS, 20% glycerol, and 125 mM Tris-HCl, pH 6.8). Lysates were incubated for 10 minutes at 100° C. to allow proteins denaturation. Protein concentration was estimated using the BCA Protein Assay Kit (Pierce). Equal amount of proteins was loaded on a gel, separated by SDS-PAGE and transferred to a Protran Nitrocellulose Membrane (Whatman) 0.2 um pores. The membranes were blocked for 1 hour at RT in Tris Buffered Saline (TBS: NaCl 150 mM, Tris-HCl 10 mM pH 7.4) plus 0.1% Tween-20 containing 5% BSA or milk. The membranes were incubated with primary antibodies diluted in TBST (TBS plus 0.1% Tween-20) containing 5% of either BSA or milk overnight at 4° C. Next, membranes were rinsed three times with TBST for 5 minutes each and incubated for 45 minutes at RT with HRP-linked secondary antibodies diluted in TBST containing 5% BSA/milk. Membranes were rinsed three times with TBST for 5 minutes each and specific bindings were detected by enhanced chemiluminescence (ECL) system (Amersham Bioscience) using ChemiDoc XRS gel imaging system (Bio-Rad).
(§2) Wild type and CCM3 knock out cells were treated with either PTC209 or DMSO starting from the day after seeding, when cells were confluent. For this experiment cells were lysed for western blot and real-time analysis after 72 hours of treatment to check a long-term effect of PTC209.
(§3) To perform these experiments, immortalized lung endothelial cells both wild type and CCM3 knock out were treated, with the same experimental strategy used for PTC209, with UNC1999 for 72 hours and subsequently lysed for western blot and real time analysis. UNC1999 was used in its specific optimal concentration, which was different to PTC209. As control DMSO was given to the cells in a volume equal to the volume of DMSO in which UNC1999 was previously dissolved to rich the optimal concentration.
(§4) Briefly, wild type and CCM3 knock out cells were treated with either PTC209, UNC1999 or a combination of the two. PTC209 and UNC1999 were administrated at the same concentration used for the single treatment and DMSO was given as control in a volume equal to the sum of volumes of DMSO in which UNC1999 and PTC209 were previously dissolved.
(In general: In western blotting, separated proteins are transferred to a membrane and probed.)

For assay [2] the test system is unchanged. The assay is described as follows: Real time (RT-PCR) analysis of EndMT markers, wild type and CCM3 knock out immortalized lung endothelial cells. The class given is cell-based, mouse. The conditions noted are these: 72 hours. Here is the method:
as §1
RNA extraction was performed both with (A) RNeasy kits (Promega) or (B) RNAeasy Mini Kit (QIAGEN). The latter allows also the extraction of proteins from the same sample. The RNA (500 ng) was reverse transcribed with random hexamers (High Capacity cDNA Archive kits; Applied Biosystems) in a final volume of 30 uL. Reaction were made with a thermocycler (Eppendorf) 10 min at 25° C. followed by 2 hours at 37° C. cDNA (5 ng) was amplified in triplicate in a reaction volume of 15 uL using TaqMan Gene Expression Assays (Applied Biosystems) in a ABI/Prism 7900 HT using a pre PCR step of 10 min at 95° C., followed by 40 cycles of 15 seconds at 95° C. and 60 seconds at 60° C. For each sample, the expression level was determined with the comparative threshold cycle (Ct) method, and normalized to the housekeeping genes encoding 18S, glyceraldehyde-3-phosphate dehydrogenase (GAPDH) and hypoxanthine-guanine phosphoribosyltransferase (hprt1). Ct or threshold cycle, represents the PCR cycle at which an increase in reporter fluorescence above a base-line signal can first be detect.
as §2, §3, §4

The mark [3] stands for this setting: CCM3 knock out cells, 1 uM PTC209, 5 uM UNC1999, vs DMSO.
The mark [4] stands for this setting: wild type cells (physiological condition), CCM3 model.

Molecules are shown by their SMILES. Entries after “also recorded” stand apart in the source; their conditions may differ.

As to `CCCc1cc(C)[nH]c(=O)c1CNC(=O)c1cc(-c2ccc(N3CCN(C(C)C)CC3)nc2)cc2c1cnn2C(C)C` [UNC1999, N-[(6-methyl-2-oxo-4-propyl-1H-pyridin-3-yl)methyl]-1-propan-2-yl-6-[6-(4-propan-2-ylpiperazin-1-yl)pyridin-3-yl]indazole-4-carboxamide], in the assay on VE-cadherin, the “VE-cadherin protein expression level (western blot)” value is recorded as “did not show any rescue”. Further, the “Hystone-methyl transferase activity of PRC2” value in the assay with PRC2 is “blocked”. In addition, in assay [1] (setting [3]), the “EndMT markers (Klf4, Sca1, Fsp1) protein expression (western blot)” value is reported as “downregulation; also recorded: inhibition of the upregulation”. Besides, the “downregulation of EndMT protein and gene expressions compared with PTC209” value in assay [1] (CCM3 knock out cells, 5 uM UNC1999, western blot and real time) is recorded as “not as strong as the downregulation observed upon administration of PTC209”. In assay [1] (setting [4]), the “Klf4 protein (western blot)” value is “not influenced”. In addition, in assay [2] (setting [3]), the “Klf4, Sca1 and Fsp1 transcripts (real time analysis)” value is reported as “downregulation”. In addition, the “Klf4 transcript (real time analysis)” value in assay [2] (setting [4]) was “not influenced”.
